Results taken from ChEMBL document CHEMBL6109103, “Dodecapeptides derived from human cathelicidin with potent activity against carbapenem-resistant Acinetobacter baumannii” (Eur J Med Chem, 2025).
Values after ≈ are worked out from the molar mass of the structure shown. Active and inactive are the calls of the source. No cut-off for these calls is given here. Positions of bridges follow the written chain, without caps; N, C: chain ends. Non-standard residues stand in square brackets, D forms with d. Residues, ends and D or L forms follow the SMILES beside them. S5 = C=CCCC[C@](C)(N)C(=O)O

How the values were obtained:
Acinetobacter baumannii [1] = experiment: Antibacterial activity against carbapenem-resistant Acinetobacter baumannii clinical isolate 6 assessed as inhibition of bacterial growth incubated for 24 hrs by broth dilution assay; format: functional
Acinetobacter baumannii [2] = experiment: Antibacterial activity against carbapenem-resistant Acinetobacter baumannii clinical isolate 7 assessed as inhibition of bacterial growth incubated for 24 hrs by broth dilution assay; format: functional
[3] = Toxicity in BALB/c mouse assessed as spleen damage at 64 mg/kg, ip measured for 3 days by H and E staining based analysis; format: organism-based; conditions: in vivo, 72 h, time 3 day
[4] = Toxicity in BALB/c mouse assessed as animal survival at 4 to 64 mg/kg, ip measured for 5 days; format: organism-based; conditions: in vivo, 120 h, dose 4-64 mg/kg, time 5 day
Acinetobacter baumannii [5] = experiment: Induction of morphological changes in carbapenem-resistant Acinetobacter baumannii at 6.25 microg/ml measured for 24 hrs by SEM analysis; format: functional, organism-based; conditions: dose 6.25 µg/ml
Escherichia coli = experiment: Antibacterial activity against human Escherichia coli assessed as inhibition of bacterial growth; format: functional, organism-based
Acinetobacter baumannii [6] = experiment: Antibacterial activity against carbapenem-resistant Acinetobacter baumannii clinical isolate 6 infected in BALB/c mouse assessed as survival rate at 1.25 mg/kg, NAS administered once a day for 3 days; format: functional; conditions: 72 h, time 3 day
Acinetobacter baumannii [7] = experiment: Antibacterial activity against carbapenem-resistant Acinetobacter baumannii clinical isolate 3 assessed as inhibition of bacterial growth incubated for 24 hrs by broth dilution assay; format: functional
[8] = Binding affinity to gram negative bacterial lipid II assessed as dissociation constant by BLI analysis; set-up: species or system Bacteria
Acinetobacter baumannii [9] = experiment: Antibacterial activity against carbapenem-resistant Acinetobacter baumannii clinical isolate 1 assessed as inhibition of bacterial growth incubated for 24 hrs by broth dilution assay; format: functional
Staphylococcus aureus [10] = experiment: Antibacterial activity against Methicillin-resistant Staphylococcus aureus ATCC 43300 assessed as inhibition of bacterial growth incubated for 24 hrs by broth dilution assay; format: functional
[11] = Toxicity in BALB/c mouse assessed as liver damage at 64 mg/kg, ip measured for 3 days by H and E staining based analysis; format: organism-based; conditions: in vivo, 72 h, time 3 day
Pseudomonas aeruginosa = experiment: Antibacterial activity against human Pseudomonas aeruginosa assessed as inhibition of bacterial growth; format: functional, organism-based
Staphylococcus aureus [12] = experiment: Antibacterial activity against Staphylococcus aureus […] assessed as inhibition of bacterial growth incubated for 24 hrs by broth dilution assay; format: functional
Acinetobacter baumannii [13] = experiment: Synergistic antibacterial activity against carbapenem-resistant Acinetobacter baumannii clinical isolate 6 in presence of tetracycline by microdilution checkerboard assay; format: functional, organism-based
[14] = Toxicity in BALB/c mouse assessed as heart damage at 64 mg/kg, ip measured for 3 days by H and E staining based analysis; format: organism-based; conditions: in vivo, 72 h, time 3 day
proteinase K [15] = experiment: Proteolytic stability assessed as proteinase K (unknown origin)-mediated drug degradation at 500 microg/ml measured for 20 mins by LC-MS analysis; format: ADME, Homo sapiens; conditions: at 500 µg/mL, read-out: Drug degradation
Acinetobacter baumannii [16] = experiment: Antibacterial activity against Acinetobacter baumannii ATCC 19606 assessed as inhibition of bacterial growth incubated for 24 hrs by broth dilution assay; format: functional
[17] = Toxicity in BALB/c mouse assessed as animal survival at 1.25 mg/kg, NAS measured for 5 days; format: organism-based; conditions: in vivo, inhaled or intranasal, time 5 day
Acinetobacter baumannii [18] = experiment: Antibacterial activity against multidrug-resistant Acinetobacter baumannii assessed as inhibition of bacterial growth incubated for 24 hrs by broth dilution assay; format: functional
Acinetobacter baumannii [19] = experiment: Synergistic antibacterial activity against carbapenem-resistant Acinetobacter baumannii clinical isolate 6 in presence of CTX by microdilution checkerboard assay; format: functional, organism-based
Acinetobacter baumannii [20] = experiment: Antibacterial activity against carbapenem-resistant Acinetobacter baumannii clinical isolate 5 assessed as inhibition of bacterial growth incubated for 24 hrs by broth dilution assay; format: functional
Acinetobacter baumannii [21] = experiment: Antibacterial activity against carbapenem-resistant Acinetobacter baumannii clinical isolate 8 assessed as inhibition of bacterial growth incubated for 24 hrs by broth dilution assay; format: functional
[22] = Toxicity in BALB/c mouse assessed as kidney damage at 64 mg/kg, ip measured for 3 days by H and E staining based analysis; format: organism-based; conditions: in vivo, 72 h, time 3 day
Lipoteichoic acid = experiment: Binding affinity to […] bacterial Lipoteichoic acid assessed as dissociation constant by BLI analysis; set-up: species or system Bacteria
[23] = Toxicity in BALB/c mouse assessed as lung damage at 64 mg/kg, ip measured for 3 days by H and E staining based analysis; format: organism-based; conditions: in vivo, 72 h, time 3 day
Acinetobacter baumannii [24] = experiment: Antibacterial activity against carbapenem-resistant Acinetobacter baumannii clinical isolate 4 assessed as inhibition of bacterial growth incubated for 24 hrs by broth dilution assay; format: functional
HaCaT = experiment: Cytotoxicity against human HaCaT cells assessed as cell death up to 100 microg/ml measured upto 24 hrs; format: toxicity, cell-based; conditions: dose < 100 µg/ml
Acinetobacter baumannii [25] = experiment: Antibacterial activity against carbapenem-resistant Acinetobacter baumannii clinical isolate 2 assessed as inhibition of bacterial growth incubated for 24 hrs by broth dilution assay; format: functional
[26] = Hemolytic activity at mouse RBC assessed as hemolysis; format: toxicity, cell-based, Erythrocyte; conditions: mouse red blood cells, read-out: Activity
Acinetobacter baumannii [27] = experiment: Antibacterial activity against carbapenem-resistant Acinetobacter baumannii clinical isolate 6 assessed as bacterial killing at 3.16 microg/ml measured for 10 to 30 mins in presence of mouse serum; format: functional, organism-based; conditions: dose 3.16 µg/ml, time 10-30 min
Acinetobacter baumannii [28] = experiment: Antibacterial activity against carbapenem-resistant Acinetobacter baumannii clinical isolate 6 assessed as bacterial killing at 3.16 microg/ml measured within 10 mins; format: functional, organism-based; conditions: dose 3.16 µg/ml
proteinase K [29] = experiment: Proteolytic stability assessed as proteinase K (unknown origin)-mediated drug degradation measured for 20 mins by LC-MS analysis; format: ADME, Homo sapiens; conditions: read-out: Drug degradation
Cell membrane [30] = experiment: Induction of inner membrane permeabilization in carbapenem-resistant Acinetobacter baumannii clinical isolate 6 at 6.25 microg/ml measured for 1 hr by NPN-dye based assay; conditions: dose 6.25 µg/ml
Cell membrane [31] = experiment: Induction of outer membrane permeabilization in carbapenem-resistant Acinetobacter baumannii clinical isolate 6 at 6.25 to 12.5 microg/ml measured for 1 hr by NPN-dye based assay; conditions: dose 6.25-12.5 µg/ml
Acinetobacter baumannii [32] = experiment: Antibacterial activity against carbapenem-resistant Acinetobacter baumannii clinical isolate 6 assessed as bacterial killing at 3.16 microg/ml measured for 1 hr in presence of NaCl; format: functional, organism-based; conditions: dose 3.16 µg/ml

Compound | MIC (Acinetobacter baumannii [1]) [µg/mL] | MIC (Acinetobacter baumannii [2]) [µg/mL] | Activity [3] | Activity [4] | Activity (Acinetobacter baumannii [5]) | Activity (Escherichia coli) | survival at 1.25 mg/kg (Acinetobacter baumannii [6]) [%] | MIC (Acinetobacter baumannii [7]) [µg/mL] | Kd [8] [nM] | MIC (Acinetobacter baumannii [9]) [µg/mL] | MIC (Staphylococcus aureus [10]) [µg/mL] | Activity [11] | Activity (Pseudomonas aeruginosa) | MIC (Staphylococcus aureus [12]) [µg/mL] | Activity (Acinetobacter baumannii [13]) | Activity [14] | MIC (Acinetobacter baumannii [16]) [µg/mL] | survival at 120 h [17] [%] | MIC (Acinetobacter baumannii [18]) [µg/mL] | Activity (Acinetobacter baumannii [19]) | other results
CC[C@H](C)[C@H](NC(=O)[C@H](CCCNC(=N)N)NC(=O)[C@@H](N)CCCCN)C(=O)N[C@@]1(C)CCC/C=C\CCC[C@@](C)(C(=O)N[C@H](C(=O)N[C@@H](Cc2ccccc2)C(=O)N[C@@H](CC(C)C)C(=O)N[C@@H](CCCNC(=N)N)C(=O)O)[C@@H](C)CC)NC(=O)[C@H]([C@@H](C)CC)NC(=O)[C@H](CCCNC(=N)N)NC(=O)[C@H](CCCNC(=N)N)NC1=O (H-KRI[S5]RRI[S5]IFLR-OH; staple (Z) 4-8) | 2.5 (≈ 1.54 µM) | 20 (≈ 12.3 µM) | Non-toxic | Non-toxic | Active | Active | 50 | 5 (≈ 3.08 µM) | 5.9 | 5 (≈ 3.08 µM) | 80 (≈ 49.3 µM) | Non-toxic | Active | 80 (≈ 49.3 µM) | Active | Non-toxic | 5 (≈ 3.08 µM) | 70 | 5 (≈ 3.08 µM) | Active | metabolised at 20 min, 500 microg/ml (proteinase K [15]): 17.8%; MIC (Acinetobacter baumannii [20]): 5 µg/mL (≈ 3.08 µM); MIC (Acinetobacter baumannii [21]): 5 µg/mL (≈ 3.08 µM); Activity [22]: Non-toxic; Kd (Lipoteichoic acid): 48.9 nM; Activity [23]: Non-toxic; MIC (Acinetobacter baumannii [24]): 10 µg/mL (≈ 6.17 µM); Activity (HaCaT): Non-toxic; MIC (Acinetobacter baumannii [25]): 10 µg/mL (≈ 6.17 µM); hemolysis [26]: < 1%
H-KRIVRRIKIFLR-OH | 2.5 | 10 | Non-toxic | Non-toxic | Active | Active | 40 | 5 | 7.14 | 10 | 80 | Non-toxic | Active | 80 | Active | Non-toxic | 10 | 30 | 5 | Active | Activity (Acinetobacter baumannii [27]): Active; Activity (Acinetobacter baumannii [28]): Active; metabolised at 20 min (proteinase K [29]): 89.4%; Activity (Cell membrane [30]): Active; Activity (Cell membrane [31]): Active; Activity (Acinetobacter baumannii [32]): Active; MIC (Acinetobacter baumannii [20]): 10 µg/mL; MIC (Acinetobacter baumannii [21]): 10 µg/mL; Activity [22]: Non-toxic; Kd (Lipoteichoic acid): 48.3 nM; Activity [23]: Non-toxic; MIC (Acinetobacter baumannii [24]): 5 µg/mL; Activity (HaCaT): Non-toxic; MIC (Acinetobacter baumannii [25]): 20 µg/mL; hemolysis [26]: < 1%
